Measurements reported in EP4596574A1, “GLP-1/GCG/GIP TRIPLE-RECEPTOR AGONIST AND USE THEREOF” (Sunshine Lake Pharma Co., Ltd., priority 2022, dated 2024).
Marks after values point to notes of the source that are not given here. Starred links: 1 amine or outer side, 2 acyl side, 3 side chain; linkers in the order of their positions; H or OH if unused. Non-standard residues stand in square brackets, D forms with d. Residues, ends and D or L forms follow the SMILES beside them. Groups on a side chain read outwards from the residue. *: point of attachment. C20 diacid = O=C(O)CCCCCCCCCCCCCCCCCCC(=O)*; αMePhe(2-F) = C[C@](N)(Cc1ccccc1F)C(=O)O; γGlu = O=C(O)[C@H](CCC(=O)[*:2])N[*:1]; AEEA = NCCOCCOCC(=O)O; Aib = CC(C)(N)C(=O)O

What was measured:
[1] = molecular target: T1, GLP-1R (Homo sapiens, UniProt P43220); experiment: In vitro cell activity, cAMP production in HEK293 cells expressing GLP-1R; assay type: cell-based; conditions: HEK293-GLP-1R cells, cAMP; read-out: GLP-1R (EC50)
T1 construct: expressed in transfected cells; host or cells: HEK293 (HEK293-GLP-1R)
T1 sequence (P43220 24-463, species assumed): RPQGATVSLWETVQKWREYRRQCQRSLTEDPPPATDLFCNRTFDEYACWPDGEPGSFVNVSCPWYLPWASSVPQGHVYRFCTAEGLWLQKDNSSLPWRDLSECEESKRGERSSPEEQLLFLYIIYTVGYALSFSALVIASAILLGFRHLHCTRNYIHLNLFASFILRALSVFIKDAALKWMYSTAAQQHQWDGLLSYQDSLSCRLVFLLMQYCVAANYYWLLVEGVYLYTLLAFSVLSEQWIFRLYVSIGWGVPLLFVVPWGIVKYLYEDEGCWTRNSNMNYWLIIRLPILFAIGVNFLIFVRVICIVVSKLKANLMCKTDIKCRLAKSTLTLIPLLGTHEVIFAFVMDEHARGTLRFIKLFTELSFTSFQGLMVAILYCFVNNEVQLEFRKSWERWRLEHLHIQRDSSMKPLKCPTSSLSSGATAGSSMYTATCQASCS
Method: (§1) After they were completely thawed within 1.5 minutes, the cells were added dropwise into a 15 mL centrifuge tube containing 8 mL of warm culture medium in a clean bench. The tubes were centrifuged at 900 rpm for 5 minutes, the supernatant was discarded, and the cells were resuspended in 1 mL of complete culture medium (by pipetting 15 times). 20 µL of the suspension was immediately taken and mixed with an equal volume of trypan blue. 20 µL was taken to count the number of live cells, and the cells were diluted to 4×10^5 cells/mL with complete culture medium. • 4) The 384-well plate was divided into GLP-1R cell, GCGR cell and GIPR cell areas. The cell suspension was added to the wells of the corresponding area at 5 µL per well using a 12-channel variable-channel adjustable dispenser. […] Then, the diluted cAMP-d2 working solution and anti-cAMP-crytate working solution were mixed evenly in a ratio of 1:1, and 10 µL was added to each well of the sample group. The wells were covered with white lids and placed at room temperature in the dark for 1 hour or at 4 °C overnight. • 6) The fluorescence values at 665 nm and 620 nm were detected in a multifunctional microplate reader. In GraphPad Prism 6, the signal ratio and sample concentration were nonlinearly fitted using a four-parameter equation to obtain the EC50 value.

[2] = molecular target: T2, GIPR (Homo sapiens, UniProt P48546); experiment: In vitro cell activity, cAMP production in HEK293 cells expressing GIPR; assay type: cell-based; conditions: HEK293-GIPR cells, cAMP; read-out: GIPR (EC50)
T2 construct: expressed in transfected cells; host or cells: HEK293 (HEK293-GIPR)
T2 sequence (P48546 22-466): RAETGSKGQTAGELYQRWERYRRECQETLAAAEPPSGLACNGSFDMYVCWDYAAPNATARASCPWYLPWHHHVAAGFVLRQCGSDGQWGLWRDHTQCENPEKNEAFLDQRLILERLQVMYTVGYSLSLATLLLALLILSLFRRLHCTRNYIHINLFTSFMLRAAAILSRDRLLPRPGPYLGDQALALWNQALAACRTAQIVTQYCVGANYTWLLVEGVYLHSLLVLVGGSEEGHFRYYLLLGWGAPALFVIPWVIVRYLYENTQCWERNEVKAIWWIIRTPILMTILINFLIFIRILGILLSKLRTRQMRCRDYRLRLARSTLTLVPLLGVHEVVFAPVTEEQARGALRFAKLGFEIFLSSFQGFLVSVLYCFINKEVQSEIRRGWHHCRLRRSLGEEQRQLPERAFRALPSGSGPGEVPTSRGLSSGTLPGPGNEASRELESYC
Method: as §1, with “The wells were covered with white lids and placed at room temperature in the dark for 1 hour or at 4 °C overnight. • 6) The fluorescence values at 665 nm and 620 nm were detected in a multifunctional microplate reader.” left out

[3] = molecular target: T3, GCGR (Homo sapiens, UniProt P47871); experiment: In vitro cell activity, cAMP production in HEK293 cells expressing GCGR; assay type: cell-based; conditions: HEK293-GCGR cells, cAMP; read-out: GCGR (EC50)
T3 construct: expressed in transfected cells; host or cells: HEK293 (HEK293-GCGR)
T3 sequence (P47871 26-477, species assumed): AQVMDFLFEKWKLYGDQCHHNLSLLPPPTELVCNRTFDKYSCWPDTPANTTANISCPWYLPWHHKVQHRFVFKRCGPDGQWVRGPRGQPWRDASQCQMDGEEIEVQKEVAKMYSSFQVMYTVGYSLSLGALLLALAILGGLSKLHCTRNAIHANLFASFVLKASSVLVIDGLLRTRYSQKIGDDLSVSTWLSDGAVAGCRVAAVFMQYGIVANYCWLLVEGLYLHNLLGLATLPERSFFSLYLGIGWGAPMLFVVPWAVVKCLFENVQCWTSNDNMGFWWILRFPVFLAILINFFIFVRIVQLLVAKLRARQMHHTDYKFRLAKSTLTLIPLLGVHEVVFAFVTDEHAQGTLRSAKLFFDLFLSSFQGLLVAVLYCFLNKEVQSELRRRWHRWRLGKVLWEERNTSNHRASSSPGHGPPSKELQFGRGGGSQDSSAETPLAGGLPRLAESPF
Method: as §1

[4] = Long-term repeated administration in diet-induced obese C57BL/6 mice (DIO); assay type: in vivo, C57/BL6 mice
Source text: Experimental methods: C57/BL6 mice were randomly divided into a normal group (NFD) and a model group (HFD) at the fifth week of age. The normal group was fed with ordinary maintenance feed, while the other groups were fed with high-fat feed D12492. The body weight and food intake of mice were monitored every 3 weeks. After 16 weeks of feeding, the body weights of mice in the model group and the normal group were (49.0±2.3) g and (31.0±2.0) g, respectively, and the difference between the two groups was statistically significant. […] Body weight and food intake were measured before each administration. After 3 weeks of administration, an intraperitoneal glucose tolerance test was performed. The mice were slaughtered and samples were collected 72 h after the last administration. The liver weight was recorded, and the liver pathological conditions and blood biochemical indexes of each group were tested.

[5] = 10 nmol/kg s.c. once every 3 days, D7
[6] = 10 nmol/kg s.c. once every 3 days, D10
[7] = 10 nmol/kg s.c. once every 3 days, D13
[8] = 10 nmol/kg s.c. once every 3 days, D16
[9] = 10 nmol/kg s.c. once every 3 days, D19
[10] = 10 nmol/kg s.c. once every 3 days, D22
[11] = 10 nmol/kg s.c. once every 3 days, D25
[12] = 10 nmol/kg s.c. once every 3 days, D28
[13] = long-term administration 10 nmol/kg, 72 h after the last administration
[14] = long-term administration 10 nmol/kg, blood biochemical index

## CC[C@H](C)[C@H](NC(=O)[C@H](Cc1ccccc1)NC(=O)[C@H](CC(=O)O)NC(=O)[C@H](CCCNC(=N)N)NC(=O)[C@H](CCC(N)=O)NC(=O)[C@H](C)NC(=O)[C@H](CCCCNC(=O)COCCOCCNC(=O)CC[C@H](NC(=O)CCCCCCCCCCCCCCCCCCC(=O)O)C(=O)O)NC(=O)[C@H](CCC(=O)O)NC(=O)[C@H](CC(=O)O)NC(=O)[C@H](CC(C)C)NC(=O)[C@H](CC(C)C)NC(=O)[C@@H](NC(=O)[C@H](CO)NC(=O)[C@H](Cc1ccc(O)cc1)NC(=O)[C@H](CC(=O)O)NC(=O)[C@H](CO)NC(=O)[C@@H](NC(=O)[C@](C)(Cc1ccccc1F)NC(=O)[C@@H](NC(=O)CNC(=O)[C@H](CCC(N)=O)NC(=O)C(C)(C)NC(=O)[C@@H](N)Cc1ccc(O)cc1)[C@@H](C)O)[C@@H](C)O)[C@@H](C)CC)C(=O)N[C@@H](CCC(=O)O)C(=O)N[C@@H](Cc1c[nH]c2ccccc12)C(=O)N[C@@H](CC(C)C)C(=O)N[C@@H](CC(C)C)C(=O)N[C@@H](CCC(=O)O)C(=O)NCC(=O)NCC(=O)N1CCC[C@H]1C(=O)N[C@@H](CO)C(=O)N[C@@H](CO)C(=O)NCC(=O)N[C@@H](C)C(=O)N1CCC[C@H]1C(=O)N1CCC[C@H]1C(=O)N1CCC[C@H]1C(=O)N[C@@H](CO)C(=O)O [HEC-PT64]
[1]
  EC50: 0.6 nM
[2]
  EC50: 0.248 nM
[3]
  EC50: 3.57 nM

## CC[C@H](C)[C@H](NC(=O)[C@H](Cc1ccccc1)NC(=O)[C@H](CC(=O)O)NC(=O)[C@H](CCCNC(=N)N)NC(=O)[C@H](CCC(N)=O)NC(=O)[C@H](C)NC(=O)[C@H](CCCCNC(=O)COCCOCCNC(=O)CC[C@H](NC(=O)CCCCCCCCCCCCCCCCCCC(=O)O)C(=O)O)NC(=O)[C@H](CCC(=O)O)NC(=O)[C@H](CC(=O)O)NC(=O)[C@H](CC(C)C)NC(=O)[C@H](CC(C)C)NC(=O)[C@@H](NC(=O)[C@H](CO)NC(=O)[C@H](Cc1ccc(O)cc1)NC(=O)[C@H](CC(=O)O)NC(=O)[C@H](CO)NC(=O)[C@@H](NC(=O)[C@](C)(Cc1ccccc1F)NC(=O)[C@@H](NC(=O)CNC(=O)[C@H](Cc1c[nH]cn1)NC(=O)C(C)(C)NC(=O)[C@@H](N)Cc1ccc(O)cc1)[C@@H](C)O)[C@@H](C)O)[C@@H](C)CC)C(=O)N[C@@H](CCC(=O)O)C(=O)N[C@@H](Cc1c[nH]c2ccccc12)C(=O)N[C@@H](CC(C)C)C(=O)N[C@@H](CC(C)C)C(=O)N[C@@H](C)C(=O)NCC(=O)NCC(=O)N1CCC[C@H]1C(=O)N[C@@H](CO)C(=O)N[C@@H](CO)C(=O)NCC(=O)N[C@@H](C)C(=O)N1CCC[C@H]1C(=O)N1CCC[C@H]1C(=O)N1CCC[C@H]1C(=O)N[C@@H](CO)C(=O)O [HEC-PT65]
[1]
  EC50: 0.624 nM
[2]
  EC50: 0.157 nM
[3]
  EC50: 1.36 nM

## CC[C@H](C)[C@H](NC(=O)[C@H](CCC(=O)O)NC(=O)[C@H](CC(=O)O)NC(=O)[C@H](CC(C)C)NC(=O)[C@H](CC(C)C)NC(=O)[C@@H](NC(=O)[C@H](CO)NC(=O)[C@H](Cc1ccc(O)cc1)NC(=O)[C@H](CC(=O)O)NC(=O)[C@H](CO)NC(=O)[C@@H](NC(=O)[C@](C)(Cc1ccccc1F)NC(=O)[C@@H](NC(=O)CNC(=O)[C@H](Cc1c[nH]cn1)NC(=O)C(C)(C)NC(=O)[C@@H](N)Cc1ccc(O)cc1)[C@@H](C)O)[C@@H](C)O)[C@@H](C)CC)C(=O)N[C@@H](C)C(=O)N[C@@H](CCC(N)=O)C(=O)N[C@@H](CCCCNC(=O)COCCOCCNC(=O)COCCOCCNC(=O)CC[C@H](NC(=O)CCCCCCCCCCCCCCCCCCC(=O)O)C(=O)O)C(=O)N[C@@H](CC(=O)O)C(=O)N[C@@H](Cc1ccccc1)C(=O)N[C@H](C(=O)N[C@@H](CCC(=O)O)C(=O)N[C@@H](Cc1c[nH]c2ccccc12)C(=O)N[C@@H](CC(C)C)C(=O)N[C@@H](CC(C)C)C(=O)N[C@@H](CCC(=O)O)C(=O)NCC(=O)NCC(=O)N1CCC[C@H]1C(=O)N[C@@H](CO)C(=O)N[C@@H](CO)C(=O)NCC(=O)N[C@@H](C)C(=O)N1CCC[C@H]1C(=O)N1CCC[C@H]1C(=O)N1CCC[C@H]1C(=O)N[C@@H](CO)C(=O)O)[C@@H](C)CC [HEC-PT66] (H-Y[Aib]HGT[αMePhe(2-F)]TSDYSILLDEIAQK([AEEA-AEEA-γGlu-C20 diacid])DFIEWLLEGGPSSGAPPPS-OH)
[1]
  EC50: 7.14 nM
[2]
  EC50: 0.213 nM
[3]
  EC50: 12.3 nM

## semaglutide [reference compound]
[4]; [5]
  Cumulative food intake (g/pcs) D7: 14.1 g/pcs
  Weight gain rate (%) D7: -8.1±1.7%
[4]; [6]
  Cumulative food intake (g/pcs) D10: 19.4 g/pcs
  Weight gain rate (%) D10: -10.8±2.2%
[4]; [7]
  Cumulative food intake (g/each) D13: 25.2 g/each
  Weight gain rate (%) D13: -13.5±3.2%
[4]; [8]
  Cumulative food intake (g/each) D16: 31.5 g/each
  Weight gain rate (%) D16: -14.2±3.8%
[4]; [9]
  Cumulative food intake (g/each) D19: 38.1 g/each
  Weight gain rate (%) D19: -14.2±4.1%
[4]; [10]
  Cumulative food intake (g/each) D22: 45.0 g/each
  Weight gain rate (%) D22: -14.5±4.5%
[4]; [11]
  Cumulative food intake (g/each) D25: 51.6 g/each
  Weight gain rate (%) D25: -16.5±4.1%
[4]; [12]
  Cumulative food intake (g/each) D28: 58.9 g/each
  Weight gain rate (%) D28: -18.5±5.1%
[4]; 10 nmol/kg s.c. once every 3 days, D30
  Cumulative food intake (g/each) D30: 63.9^a g/each
[4]; 10 nmol/kg s.c. once every 3 days, D31
  Weight gain rate (%) D31: -17.4±4.9^a %
[4]; 10 nmol/kg s.c., D0
  Cumulative food intake (g/pcs) D0: 2.6 g/pcs
  Weight gain rate (%) D0: 0.0±0.0%
[4]; 10 nmol/kg s.c., D1
  Cumulative food intake (g/pcs) D1: 2.9 g/pcs
  Weight gain rate (%) D1: -6.8±0.6%
[4]; 10 nmol/kg s.c., D2
  Cumulative food intake (g/pcs) D2: 4.0 g/pcs
  Weight gain rate (%) D2: -7.1±1.1%
[4]; 10 nmol/kg s.c., D3
  Cumulative food intake (g/pcs) D3: 6.4 g/pcs
  Weight gain rate (%) D3: -5.2±1.3%
[4]; 10 nmol/kg s.c., D4
  Cumulative food intake (g/pcs) D4: 9.3 g/pcs
  Weight gain rate (%) D4: -3.8±1.3%
[4]; [13]
  Liver index/%: 3.0±0.0^a %
  Liver/g: 1.1±0.1^a g
  Weight/g: 38.3±2.9^a g
[4]; [14]
  ALT (U/L): 45.4±14.6^a U/L
  AST (U/L): 131.2±19.2^a U/L
  CHOL (mmol/L): 4.5±0.6^a mmol/L
  TRIGL (mmol/L): 0.6±0.1^a mmol/L
